System: human TH17 cells
Assay: Inhibition of IL-17 release from human TH17 cells
Format: cell-based
Conditions: Homo sapiens, 96 h, isolated human TH17 cells, 4 days culture, IL-17A by HTRF; read-out: pIC50 IL-17 release (converted)
In short: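 TH17 cells (CD4+CXCR3-CCR6+) enriched from healthy-donor PBMC isolated from heparinized whole blood. Supernatants collected on day 4; IL-17A quantified by HTRF.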

| SMILES | IC50 |
| --- | --- |
| O=CN1Cc2cc(S(=O)(=O)C3CC3)ccc2C1C(=O)Nc1ccc(C(O)(C(F)(F)F)C(F)(F)F)cc1 (stereo not shown) [Example 604, 5-(Cyclopropylsulfonyl)-2-formyl-N-[4-(1,1,1,3,3,3-hexafluoro-2-hydroxypropan-2-yl)phenyl]-2,3-dihydro-1H-isoindole-1-carboxamide] | 50.1 nM |
| COCC(=O)N1Cc2cc(S(=O)(=O)C3CC3)ccc2C1C(=O)Nc1ccc(C(O)(C(F)(F)F)C(F)(F)F)cc1 (stereo not shown) [Example 606, 5-(Cyclopropylsulfonyl)-N-[4-(1,1,1,3,3,3-hexafluoro-2-hydroxypropan-2-yl)phenyl]-2-(methoxyacetyl)-2,3-dihydro-1H-isoindole-1-carboxamide] | 31.6 nM |
| N#CC1(C(=O)N2Cc3cc(S(=O)(=O)C4CC4)ccc3C2C(=O)Nc2ccc(C(O)(C(F)(F)F)C(F)(F)F)cc2)CC1 (stereo not shown) [Example 607, 2-[(1-Cyanocyclopropyl)carbonyl]-5-(cyclopropylsulfonyl)-N-[4-(1,1,1,3,3,3-hexafluoro-2-hydroxypropan-2-yl)phenyl]-2,3-dihydro-1H-isoindole-1-carboxamide] | 39.8 nM |
| O=C(Nc1ccc(C(O)(C(F)(F)F)C(F)(F)F)cc1)C1c2ccc(S(=O)(=O)C3CC3)cc2CN1C(=O)[C@@H]1CCCO1 (stereo partly drawn) [Example 608, 5-(Cyclopropylsulfonyl)-N-[4-(1,1,1,3,3,3-hexafluoro-2-hydroxypropan-2-yl)phenyl]-2-[(2S)-tetrahydrofuran-2-ylcarbonyl]-2,3-dihydro-1H-isoindole-1-carboxamide] | 39.8 nM |
| O=C(Nc1ccc(C(O)(C(F)(F)F)C(F)(F)F)cc1)C1c2ccc(S(=O)(=O)C3CC3)cc2CN1C(=O)[C@H]1CCCO1 (stereo partly drawn) [Example 609, 5-(Cyclopropylsulfonyl)-N-[4-(1,1,1,3,3,3-hexafluoro-2-hydroxypropan-2-yl)phenyl]-2-[(2R)-tetrahydrofuran-2-ylcarbonyl]-2,3-dihydro-1H-isoindole-1-carboxamide] | 50.1 nM |
| CNC(=O)N1Cc2cc(S(=O)(=O)C3CC3)ccc2C1C(=O)Nc1ccc(C(O)(C(F)(F)F)C(F)(F)F)cc1 (stereo not shown) [Example 610] | 63.1 nM |
| COCCS(=O)(=O)c1ccc2c(c1)CNC2C(=O)Nc1ccc(C(O)(C(F)(F)F)C(F)(F)F)cc1 (stereo not shown) [Example 700, N-(4-(1,1,1,3,3,3-hexafluoro-2-hydroxypropan-2-yl)phenyl)-5-((2-methoxyethyl)sulfonyl)isoindoline-1-carboxamide] | 100 nM |
| COCCS(=O)(=O)c1ccc2c(c1)CN(C=O)C2C(=O)Nc1ccc(C(O)(C(F)(F)F)C(F)(F)F)cc1 (stereo not shown) [Example 701, 2-Formyl-N-[4-(1,1,1,3,3,3-hexafluoro-2-hydroxypropan-2-yl)phenyl]-5-[(2-methoxyethyl)sulfonyl]-2,3-dihydro-1H-isoindole-1-carboxamide] | 15.8 nM |
| COCCS(=O)(=O)c1ccc2c(c1)CN(C(=O)C1(OC)CC1)C2C(=O)Nc1ccc(C(O)(C(F)(F)F)C(F)(F)F)cc1 (stereo not shown) [Example 703, N-[4-(1,1,1,3,3,3-hexafluoro-2-hydroxypropan-2-yl)phenyl]-2-[(1-methoxycyclopropyl)carbonyl]-5-[(2-methoxyethyl)sulfonyl]-2,3-dihydro-1H-isoindole-1-carboxamide] | 25.1 nM |
| COCCS(=O)(=O)c1ccc2c(c1)CN(C(=O)OC)C2C(=O)Nc1ccc(C(O)(C(F)(F)F)C(F)(F)F)cc1 (stereo not shown) [Example 704, Methyl 1-{[4-(1,1,1,3,3,3-hexafluoro-2-hydroxypropan-2-yl)phenyl]carbamoyl}-5-[(2-methoxyethyl)sulfonyl]-1,3-dihydro-2H-isoindole-2-carboxylate] | 25.1 nM |
| COCCS(=O)(=O)c1ccc2c(c1)CN(C(=O)CO)C2C(=O)Nc1ccc(C(O)(C(F)(F)F)C(F)(F)F)cc1 (stereo not shown) [Example 705, N-[4-(1,1,1,3,3,3-Hexafluoro-2-hydroxypropan-2-yl)phenyl]-2-(hydroxyacetyl)-5-[(2-methoxyethyl)sulfonyl]-2,3-dihydro-1H-isoindole-1-carboxamide] | 100 nM |
| COCCS(=O)(=O)c1ccc2c(c1)CN(C(=O)COC)C2C(=O)Nc1ccc(C(O)(C(F)(F)F)C(F)(F)F)cc1 (stereo not shown) [Example 706, N-[4-(1,1,1,3,3,3-Hexafluoro-2-hydroxypropan-2-yl)phenyl]-2-(methoxyacetyl)-5-[(2-methoxyethyl)sulfonyl]-2,3-dihydro-1H-isoindole-1-carboxamide] | 50.1 nM |
| CNC(=O)N1Cc2cc(S(=O)(=O)CCOC)ccc2C1C(=O)Nc1ccc(C(O)(C(F)(F)F)C(F)(F)F)cc1 (stereo not shown) [Example 707] | 50.1 nM |
| COC1(C(=O)N2Cc3cc(S(=O)(=O)CCO)ccc3C2C(=O)Nc2ccc(C(O)(C(F)(F)F)C(F)(F)F)cc2)CC1 (stereo not shown) [Example 802, N-[4-(1,1,1,3,3,3-Hexafluoro-2-hydroxypropan-2-yl)phenyl]-5-[(2-hydroxyethyl)sulfonyl]-2-[(1-methoxycyclopropyl)carbonyl]-2,3-dihydro-1H-isoindole-1-carboxamide] | 79.4 nM |
| COC(=O)N1Cc2cc(S(=O)(=O)CC3(C#N)CC3)ccc2C1C(=O)Nc1ccc(C(O)(C(F)(F)F)C(F)(F)F)cc1 (stereo not shown) [Example 902, Methyl 5-{[(1-cyanocyclopropyl)methyl]sulfonyl}-1-{[4-(1,1,1,3,3,3-hexafluoro-2-hydroxypropan-2-yl)phenyl]carbamoyl}-1,3-dihydro-2H-isoindole-2-carboxylate] | 50.1 nM |
| CC(=O)N1Cc2cc(S(=O)(=O)CC(C)C)ccc2C1C(=O)Nc1ccc(C(O)(C(F)(F)F)C(F)(F)F)cc1 (stereo not shown) [Example 1001, 2-Acetyl-N-[4-(1,1,1,3,3,3-hexafluoro-2-hydroxypropan-2-yl)phenyl]-5-[(2-methylpropyl)sulfonyl]-2,3-dihydro-1H-isoindole-1-carboxamide] | 100 nM |
| O=C(Nc1ccc(C(O)(C(F)(F)F)C(F)(F)F)cc1)C1NCc2cc(S(=O)(=O)CC3(O)CC3)ccc21 (stereo not shown) [Example 1100, N-[4-(1,1,1,3,3,3-Hexafluoro-2-hydroxypropan-2-yl)phenyl]-5-{[(1-hydroxycyclopropyl)methyl]sulfonyl}-2,3-dihydro-1H-isoindole-1-carboxamide] | 200 nM |
| CC(=O)N1Cc2cc(S(=O)(=O)CC3(O)CC3)ccc2C1C(=O)Nc1ccc(C(O)(C(F)(F)F)C(F)(F)F)cc1 (stereo not shown) [Example 1101, 2-Acetyl-N-[4-(1,1,1,3,3,3-hexafluoro-2-hydroxypropan-2-yl)phenyl]-5-{[(1-hydroxycyclopropyl)methyl]sulfonyl}-2,3-dihydro-1H-isoindole-1-carboxamide] | 63.1 nM |
| O=CN1Cc2cc(S(=O)(=O)CC3(O)CC3)ccc2C1C(=O)Nc1ccc(C(O)(C(F)(F)F)C(F)(F)F)cc1 (stereo not shown) [Example 1102, 2-Formyl-N-[4-(1,1,1,3,3,3-hexafluoro-2-hydroxypropan-2-yl)phenyl]-5-{[(1-hydroxycyclopropyl)methyl]sulfonyl}-2,3-dihydro-1H-isoindole-1-carboxamide] | 31.6 nM |
| O=C(Nc1ccc(C(O)(C(F)(F)F)C(F)(F)F)cc1)C1c2ccc(S(=O)(=O)CC3(O)CC3)cc2CN1C(=O)CO (stereo not shown) [Example 1103, N-[4-(1,1,1,3,3,3-Hexafluoro-2-hydroxypropan-2-yl)phenyl]-2-(hydroxyacetyl)-5-{[(1-hydroxycyclopropyl)methyl]sulfonyl}-2,3-dihydro-1H-isoindole-1-carboxamide] | 501 nM |
| CC(=O)N1Cc2cc(S(=O)(=O)CC(C)O)ccc2C1C(=O)Nc1ccc(C(O)(C(F)(F)F)C(F)(F)F)cc1 (stereo not shown) [Example 1200, 2-Acetyl-N-[4-(1,1,1,3,3,3-hexafluoro-2-hydroxypropan-2-yl)phenyl]-5-[(2-hydroxypropyl)sulfonyl]-2,3-dihydro-1H-isoindole-1-carboxamide] | 158 nM |
| O=C(Nc1ccc(C(O)(C(F)(F)F)C(F)(F)F)cc1)C1NCc2cc(S(=O)(=O)CC3(F)CC3)ccc21 (stereo not shown) [Example 1300, 5-{[(1-Fluorocyclopropyl)methyl]sulfonyl}-N-[4-(1,1,1,3,3,3-hexafluoro-2-hydroxypropan-2-yl)phenyl]-2,3-dihydro-1H-isoindole-1-carboxamide] | 251 nM |

Source: patent US10988445B2 (AstraZeneca AB, priority 2015, dated 2021)
